According to US20250313563A1, “GLYCOGEN SYNTHASE KINASE 3 INHIBITORS AND USES THEREOF” (The Broad Institute, Inc., priority 2022, published 2025):
Where two headings read alike, the source gives them in different places.

How the values were obtained:
[1] = target: GSK3α (GST-full length GSK3α) (Homo sapiens (Human), UniProt P49840); experiment: GSK3α TR-FRET kinase assay; type: biochemical
Procedure, shortened: (§1)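 Compound was preincubated 30 min with 1 nM GST-GSK3 enzyme. Reaction ran 100 min at ambient temperature in Tris pH 7.5/MgCl2 with 200 nM biotinylated pS645-glycogen synthase 631-650 peptide and ATP (4 μM GSK3α, 2 μM GSK3b, or 1 mM). The EDTA-stopped reaction was read by TR-FRET (Tb-anti-pSer641/streptavidin-d2), and IC50s were fitted.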

[2] = target: GSK3b (GST-full length GSK3b) (Homo sapiens (Human), UniProt P49841); experiment: GSK3b TR-FRET kinase assay; type: biochemical
Procedure, shortened: as §1

[3] = 1 nM GSK3α, 4 μM ATP, 30 minute preincubation, geometric mean, read-out: GSK3-A TR-FRET BIOCHEMICAL (TR-FRET), GMean, IC50
[4] = 1 nM GSK3b, 2 μM ATP, 30 minute preincubation, geometric mean, read-out: GSK3-B TR-FRET BIOCHEMICAL (TR-FRET), GMean, IC50
[5] = 1 nM GSK3α, 4 μM ATP, 30 minute preincubation, read-out: GSK3-A TR-FRET BIOCHEMICAL (TR-FRET), IC50
[6] = 1 nM GSK3b, 2 μM ATP, 30 minute preincubation, read-out: GSK3-B TR-FRET BIOCHEMICAL (TR-FRET), IC50
[7] = 1 nM GSK3α, 4 μM ATP, 30 minute preincubation, Table 16, read-out: GSK3-A TR-FRET BIOCHEMICAL (TR-FRET)
[8] = 1 nM GSK3b, 2 μM ATP, 30 minute preincubation, Table 16, read-out: GSK3-B TR-FRET BIOCHEMICAL (TR-FRET)
[9] = read-out: GSK3-A (TR-FRET 1 mM ATP), GMean, IC50, 1 mM ATP, geometric mean
[10] = read-out: GSK3-B (TR-FRET 1 mM ATP), GMean, IC50, 1 mM ATP, geometric mean

Chain of GSK3α (GST-full length GSK3α) (P49840 whole entry): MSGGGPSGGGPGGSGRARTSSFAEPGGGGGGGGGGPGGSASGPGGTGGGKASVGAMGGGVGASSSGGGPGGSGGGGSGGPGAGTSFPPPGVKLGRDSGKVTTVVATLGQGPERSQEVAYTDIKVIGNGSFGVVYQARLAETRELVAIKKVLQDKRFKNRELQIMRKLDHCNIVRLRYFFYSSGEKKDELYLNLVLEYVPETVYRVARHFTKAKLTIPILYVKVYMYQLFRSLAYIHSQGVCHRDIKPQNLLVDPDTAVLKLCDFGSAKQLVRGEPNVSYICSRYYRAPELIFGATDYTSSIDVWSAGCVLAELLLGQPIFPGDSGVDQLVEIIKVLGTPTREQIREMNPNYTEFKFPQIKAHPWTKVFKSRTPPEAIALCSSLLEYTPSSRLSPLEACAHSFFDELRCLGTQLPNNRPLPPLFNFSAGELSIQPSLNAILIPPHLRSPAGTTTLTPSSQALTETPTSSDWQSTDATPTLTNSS
Chain of GSK3b (GST-full length GSK3b) (P49841 whole entry): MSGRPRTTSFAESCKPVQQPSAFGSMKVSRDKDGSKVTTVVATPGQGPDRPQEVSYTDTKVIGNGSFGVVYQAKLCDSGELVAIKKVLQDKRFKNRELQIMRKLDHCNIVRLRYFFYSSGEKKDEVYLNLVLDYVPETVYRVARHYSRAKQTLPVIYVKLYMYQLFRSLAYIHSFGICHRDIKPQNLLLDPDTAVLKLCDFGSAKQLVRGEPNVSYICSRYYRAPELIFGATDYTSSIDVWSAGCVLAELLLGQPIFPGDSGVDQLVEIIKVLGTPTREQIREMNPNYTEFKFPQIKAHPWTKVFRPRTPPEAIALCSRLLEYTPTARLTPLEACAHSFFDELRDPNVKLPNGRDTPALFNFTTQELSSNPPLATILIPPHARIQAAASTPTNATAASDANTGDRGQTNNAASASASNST

| Structure (SMILES) | IC50 [1, 3] [nM] | IC50 [2, 4] [nM] | further results |
| --- | --- | --- | --- |
| CCC1(c2cccc(-c3ccnc4c3CCC4)c2)C2=C(CC(C)(C)NC2=O)Nc2n[nH]c(C)c21 (stereo not shown) [Compound 947675] | ≤ 100 | 100 to 1000 |  |
| CCC1(c2cccc(-c3ccnc4c3CCC4)c2)C2=C(CC(C)(C)NC2=O)Nc2n[nH]cc21 (stereo not shown) [Compound 947676] | ≤ 100 | 100 to 1000 |  |
| CCC1(c2cccc(-c3cn[nH]c3)c2)C2=C(CC(C)(C)NC2=O)Nc2n[nH]c(C(F)(F)F)c21 (stereo not shown) [Compound 947677] | ≤ 100 | ≤ 100 |  |
| CC1CC(C(=O)N2CC3(C2)CC2(CO3)C3=C(CC(C)(C)CC3=O)Nc3n[nH]cc32)C1 (stereo not shown) [Compound 947732] |  |  | IC50 [1, 5]: 100 to 1000 nM; IC50 [2, 6]: 1000 to 5000 nM |
| CC1CC(C(=O)N2CC3(C2)CC2(CO3)C3=C(CC(C)(C)CC3=O)Nc3n[nH]cc32)C1 (stereo not shown) [Compound 947733] |  |  | IC50 [1, 5]: ≤ 100 nM; IC50 [2, 6]: ≤ 100 nM |
| CC1(C)CC(=O)C2=C(C1)Nc1n[nH]cc1[C@]21COC2(CN(C(=O)C3(F)CCC3)C2)C1 [Compound 947735] |  |  | IC50 [1, 5]: ≤ 100 nM; IC50 [2, 6]: ≤ 100 nM |
| CC1(C)CC(=O)C2=C(C1)Nc1n[nH]cc1C21COC2(CN(C(=O)C3(F)CCC3)C2)C1 (stereo not shown) [Compound 947736] |  |  | IC50 [1, 5]: ≤ 100 nM; IC50 [2, 6]: 100 to 1000 nM |
| CCC1(c2cccc(C(F)(F)F)c2)C2=C(CCN(c3ccc(F)cc3)C2=O)Nc2n[nH]cc21 (stereo not shown) [Compound 947748] | ≤ 100 | 100 to 1000 |  |
| CCC1(c2cccc(-c3ccnc(C)c3)c2)C2=C(CC(C)(C)NC2=O)Nc2n[nH]c(C)c21 (stereo not shown) [Compound 947798] | ≤ 100 | 100 to 1000 |  |
| CCC1(c2cccc(S(C)(=O)=O)c2)C2=C(CC(C)(C)NC2=O)Nc2n[nH]c(C(F)(F)F)c21 (stereo not shown) [Compound 947799] | ≤ 100 | ≤ 100 |  |
| CCC1(c2cccc(S(=O)(=O)C(C)C)c2)C2=C(CC(C)(C)NC2=O)Nc2n[nH]c(C(F)(F)F)c21 (stereo not shown) [Compound 947800] | ≤ 100 | ≤ 100 |  |
| CCC1(c2cccc(-c3cnn4c3CCCC4)c2)C2=C(CC(C)(C)NC2=O)Nc2n[nH]c(C(F)(F)F)c21 (stereo not shown) [Compound 947801] | ≤ 100 | ≤ 100 |  |
| CCC1(c2cccc(-c3cnnn3C)c2)C2=C(CC(C)(C)CC2=O)Nc2n[nH]cc21 (stereo not shown) [Compound 947802] |  |  | IC50 [1, 7]: ≤ 100 nM; IC50 [2, 8]: ≤ 100 nM |
| CC[C@@]1(c2cccc(S(=O)(=O)C3CC3)c2)C2=C(CC(C)(C)NC2=O)Nc2n[nH]cc21 [Compound 947803] | ≤ 100 | ≤ 100 |  |
| CCC1(c2cccc(-c3cc(C)ncc3F)c2)C2=C(CC(C)(C)NC2=O)Nc2n[nH]cc21 (stereo not shown) [Compound 947804] | ≤ 100 | 100 to 1000 |  |
| CC[C@]1(c2cccc(-c3ccncc3F)c2)C2=C(CC(C)(C)NC2=O)Nc2n[nH]c(C)c21 [Compound 947805] | 100 to 1000 | 1000 to 5000 |  |
| CCC1(c2cccc(-c3cncn3C)c2)C2=C(CC(C)(C)NC2=O)Nc2n[nH]cc21 (stereo not shown) [Compound 947806] | ≤ 100 | ≤ 100 |  |
| CC[C@]1(c2cccc(-c3cnn(C)c3C)c2)C2=C(CC(C)(C)NC2=O)Nc2n[nH]c(C(F)(F)F)c21 [Compound 947807] | ≤ 100 | 100 to 1000 |  |
| CCC1(c2cccc(Oc3ncccn3)c2)C2=C(CC(C)(C)CC2=O)Nc2n[nH]cc21 (stereo not shown) [Compound 947808] |  |  | IC50 [1, 7]: ≤ 100 nM; IC50 [1, 9]: ≤ 100 nM; IC50 [2, 8]: ≤ 100 nM; IC50 [2, 10]: 100 to 1000 nM |
| CC[C@]1(c2cccc(-c3cnn4c3CCCC4)c2)C2=C(CC(C)(C)NC2=O)Nc2n[nH]c(C)c21 [Compound 947809] | 100 to 1000 | 1000 to 5000 |  |
| CC[C@]1(c2cccc(-c3ccnc(CCO)c3)c2)C2=C(CC(C)(C)CC2=O)Nc2n[nH]cc21 [Compound 947810] |  |  | IC50 [1, 7]: ≤ 100 nM; IC50 [2, 8]: 100 to 1000 nM |
| CC[C@]1(c2cccc(-c3ccncc3C)c2)C2=C(CC(C)(C)NC2=O)Nc2[nH]nc(C(F)(F)F)c21 [Compound 947812] | ≤ 100 | ≤ 100 |  |
| CC1(C)CC(=O)C2=C(C1)Nc1n[nH]cc1C21CN(c2cccnc2)C1 [Compound 947813] |  |  | IC50 ([1]; 1 nM GSK3α, 4 μM ATP, 30 minute preincubation, Table 16, read-out: GSK3-A TR-FRET BIOCHEMICAL (TR-FRET), IC50): 1000 to 5000 nM; IC50 ([2]; 1 nM GSK3b, 2 μM ATP, 30 minute preincubation, Table 16, read-out: GSK3-B TR-FRET BIOCHEMICAL (TR-FRET), IC50): 1000 to 5000 nM |
| CCC1(c2cccc(-c3ccncc3C)c2)C2=C(CC(C)(C)NC2=O)Nc2n[nH]c(C(F)(F)F)c21 (stereo not shown) [Compound 947814] | ≤ 100 | ≤ 100 | IC50 [1, 9]: ≤ 100 nM; IC50 [2, 10]: ≤ 100 nM |
